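96-well plates; 48 h exposure; 5 concentrations. Endpoints by linear interpolation between flanking doses. Not reached: highest tested concentration assigned. GI50 = concentration required for 50% inhibition of growth. TGI: total growth inhibition.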
Key:
Assay in all cases: inhibition of tumour cell growth, NCI panel, 48 h
SW-620 colon = tested on: SW-620 colon
NCI-H226 lung = tested on: NCI-H226 lung
ACHN renal = tested on: ACHN renal
CAKI-1 renal = tested on: CAKI-1 renal
SNB-19 CNS = tested on: SNB-19 CNS
OVCAR-4 ovarian = tested on: OVCAR-4 ovarian
NCI-H522 lung = tested on: NCI-H522 lung
SK-MEL-28 melanoma = tested on: SK-MEL-28 melanoma
HCT-116 colon = tested on: HCT-116 colon
SNB-75 CNS = tested on: SNB-75 CNS
CCRF-CEM leukemia = tested on: CCRF-CEM leukemia
K-562 leukemia = tested on: K-562 leukemia
MDA-MB-231 breast = tested on: MDA-MB-231 breast
SF-268 CNS = tested on: SF-268 CNS
UACC-62 melanoma = tested on: UACC-62 melanoma
RPMI-8226 leukemia = tested on: RPMI-8226 leukemia
HOP-62 NSCLC = tested on: HOP-62 NSCLC
HOP-92 NSCLC = tested on: HOP-92 NSCLC
LOX IMVI melanoma = tested on: LOX IMVI melanoma
RXF 393 renal = tested on: RXF 393 renal
A498 renal = tested on: A498 renal
OVCAR-5 ovarian = tested on: OVCAR-5 ovarian
TK-10 renal = tested on: TK-10 renal
OVCAR-8 ovarian = tested on: OVCAR-8 ovarian
786-0 renal = tested on: 786-0 renal
NCI/ADR-RES ovarian = tested on: NCI/ADR-RES ovarian
MALME-3M melanoma = tested on: MALME-3M melanoma
T-47D breast = tested on: T-47D breast
U251 CNS = tested on: U251 CNS
SF-539 CNS = tested on: SF-539 CNS
A549 NSCLC = tested on: A549 NSCLC
SF-295 CNS = tested on: SF-295 CNS
EKVX NSCLC = tested on: EKVX NSCLC
DU-145 prostate = tested on: DU-145 prostate
M14 melanoma = tested on: M14 melanoma
MDA-MB-468 breast = tested on: MDA-MB-468 breast
KM12 colon = tested on: KM12 colon
SR leukemia = tested on: SR leukemia
PC-3 prostate = tested on: PC-3 prostate
NCI-H23 lung = tested on: NCI-H23 lung
NCI-H460 lung = tested on: NCI-H460 lung
MOLT-4 leukemia = tested on: MOLT-4 leukemia
HCT-15 colon = tested on: HCT-15 colon
MDA-MB-435 = tested on: MDA-MB-435
MCF7 breast = tested on: MCF7 breast
COLO 205 colon = tested on: COLO 205 colon
SK-MEL-2 melanoma = tested on: SK-MEL-2 melanoma
HS 578T breast = tested on: HS 578T breast
HCC-2998 colon = tested on: HCC-2998 colon
OVCAR-3 ovarian = tested on: OVCAR-3 ovarian
BT-549 breast = tested on: BT-549 breast
SK-MEL-5 melanoma = tested on: SK-MEL-5 melanoma
HL-60(TB) leukemia = tested on: HL-60(TB) leukemia
SK-OV-3 ovarian = tested on: SK-OV-3 ovarian
UO-31 renal = tested on: UO-31 renal
HT29 colon = tested on: HT29 colon
IGROV1 ovarian = tested on: IGROV1 ovarian
UACC-257 melanoma = tested on: UACC-257 melanoma
SN12C renal = tested on: SN12C renal

CC1(c2ccccc2)NC(=O)N(CC(=O)Nc2ccc(C(=O)/C=C/c3ccccc3)cc2)C1=O (stereo not drawn)
GI50 (SW-620 colon): 15.1 µM
TGI (SW-620 colon): 34.9 µM
GI50 (NCI-H226 lung): 15.8 µM
TGI (NCI-H226 lung): 78.1 µM
GI50 (ACHN renal): 13.2 µM
TGI (ACHN renal): 31 µM
GI50 (CAKI-1 renal): 11.5 µM
TGI (CAKI-1 renal): 29.6 µM
GI50 (SNB-19 CNS): 14 µM
TGI (SNB-19 CNS): 35.6 µM
GI50 (OVCAR-4 ovarian): 13.3 µM
TGI (OVCAR-4 ovarian): 96.3 µM
GI50 (NCI-H522 lung): 11.1 µM
TGI (NCI-H522 lung): 27.4 µM
GI50 (SK-MEL-28 melanoma): 14.3 µM
TGI (SK-MEL-28 melanoma): 29.1 µM
GI50 (HCT-116 colon): 1.63 µM
TGI (HCT-116 colon): 3.35 µM
GI50 (SNB-75 CNS): 3 µM
TGI (SNB-75 CNS): 41.7 µM
GI50 (CCRF-CEM leukemia): 5.76 µM
TGI (CCRF-CEM leukemia): 41.3 µM
GI50 (K-562 leukemia): 4.03 µM
TGI (K-562 leukemia): > 100 µM
GI50 (MDA-MB-231 breast): 11.7 µM
TGI (MDA-MB-231 breast): 30.9 µM
GI50 (SF-268 CNS): 12.4 µM
TGI (SF-268 CNS): 48.6 µM
GI50 (UACC-62 melanoma): 6.52 µM
TGI (UACC-62 melanoma): 23 µM
GI50 (RPMI-8226 leukemia): 2.27 µM
TGI (RPMI-8226 leukemia): 6.85 µM
GI50 (HOP-62 NSCLC): 18.2 µM
TGI (HOP-62 NSCLC): 53.5 µM
GI50 (HOP-92 NSCLC): 9.31 µM
TGI (HOP-92 NSCLC): 69.2 µM
GI50 (LOX IMVI melanoma): 7.56 µM
TGI (LOX IMVI melanoma): 20.8 µM
GI50 (RXF 393 renal): 5.81 µM
TGI (RXF 393 renal): 21.6 µM
GI50 (A498 renal): 14.2 µM
TGI (A498 renal): 28.7 µM
GI50 (OVCAR-5 ovarian): 16.5 µM
TGI (OVCAR-5 ovarian): 36.6 µM
GI50 (TK-10 renal): 17.8 µM
TGI (TK-10 renal): 68.2 µM
GI50 (OVCAR-8 ovarian): 16.8 µM
TGI (OVCAR-8 ovarian): 64.3 µM
GI50 (786-0 renal): 13.7 µM
TGI (786-0 renal): 27.4 µM
GI50 (NCI/ADR-RES ovarian): 21.8 µM
TGI (NCI/ADR-RES ovarian): 82.3 µM
GI50 (MALME-3M melanoma): 15 µM
TGI (MALME-3M melanoma): 38.9 µM
GI50 (T-47D breast): 3.17 µM
TGI (T-47D breast): 29.2 µM
GI50 (U251 CNS): 6.17 µM
TGI (U251 CNS): 21.3 µM
GI50 (SF-539 CNS): 12.9 µM
TGI (SF-539 CNS): 25.9 µM
GI50 (A549 NSCLC): 10.8 µM
TGI (A549 NSCLC): 27.7 µM
GI50 (SF-295 CNS): 11.9 µM
TGI (SF-295 CNS): 26.3 µM
GI50 (EKVX NSCLC): 7.62 µM
TGI (EKVX NSCLC): 33 µM
GI50 (DU-145 prostate): 13.7 µM
TGI (DU-145 prostate): 28.9 µM
GI50 (M14 melanoma): 9.54 µM
TGI (M14 melanoma): 22.7 µM
GI50 (MDA-MB-468 breast): 5.7 µM
TGI (MDA-MB-468 breast): 20.6 µM
GI50 (KM12 colon): 4.94 µM
TGI (KM12 colon): 26.8 µM
GI50 (SR leukemia): 3.1 µM
TGI (SR leukemia): > 100 µM
GI50 (PC-3 prostate): 7.74 µM
TGI (PC-3 prostate): 51.9 µM
GI50 (NCI-H23 lung): 13.9 µM
TGI (NCI-H23 lung): 28.9 µM
GI50 (NCI-H460 lung): 15.5 µM
TGI (NCI-H460 lung): 41 µM
GI50 (MOLT-4 leukemia): 7.1 µM
TGI (MOLT-4 leukemia): 57.1 µM
GI50 (HCT-15 colon): 14.2 µM
TGI (HCT-15 colon): 35.3 µM
GI50 (MDA-MB-435): 3.11 µM
TGI (MDA-MB-435): 13.5 µM
GI50 (MCF7 breast): 3.15 µM
TGI (MCF7 breast): 14 µM
GI50 (COLO 205 colon): 14.2 µM
TGI (COLO 205 colon): 29.6 µM
GI50 (SK-MEL-2 melanoma): 12.8 µM
TGI (SK-MEL-2 melanoma): 33.9 µM
GI50 (HS 578T breast): 20.5 µM
TGI (HS 578T breast): > 100 µM
GI50 (HCC-2998 colon): 4.25 µM
TGI (HCC-2998 colon): 14.3 µM
GI50 (OVCAR-3 ovarian): 11.8 µM
TGI (OVCAR-3 ovarian): 26.8 µM
GI50 (BT-549 breast): 8.21 µM
TGI (BT-549 breast): 21.6 µM
GI50 (SK-MEL-5 melanoma): 7.59 µM
TGI (SK-MEL-5 melanoma): 20.4 µM
GI50 (HL-60(TB) leukemia): 12.3 µM
TGI (HL-60(TB) leukemia): 68.3 µM
GI50 (SK-OV-3 ovarian): 17.9 µM
TGI (SK-OV-3 ovarian): 52.2 µM
GI50 (UO-31 renal): 10.3 µM
TGI (UO-31 renal): 23.9 µM
GI50 (HT29 colon): 7.82 µM
TGI (HT29 colon): 24.6 µM
GI50 (IGROV1 ovarian): 12.9 µM
TGI (IGROV1 ovarian): 27.7 µM
GI50 (UACC-257 melanoma): 13.1 µM
TGI (UACC-257 melanoma): 27.4 µM
GI50 (SN12C renal): 11.5 µM
TGI (SN12C renal): 35 µM
